# According to patent US11110098B2, “Methods and medicaments for the treatment of renal cell carcinoma” (University of Kansas, priority 2017, dated 2021):
# Tests used:
# [1] = test system: pERK1/2, ERK1/2, pCREB, CREB, VEGF; test: Immunoblotting of xenograft tumor lysates; assay type: in vivo, Nu/Nu mice; settings: tolvaptan 120 mg/Kg oral
# Experimental: (§1) Female Athymic Nude-Foxn1^nu mice (Nu/Nu mice), 7-8 weeks old and weighing ˜25 g were procured from Envigo/Harlan. All animal studies were carried out according to the protocols approved by the University of Kansas Medical Center Institutional Animal Care and Use Committee. Mice were subcutaneously injected on the right flank region with 1×10^6 Caki-1 cells in 100 μl of DMEM medium. One week after injection, palpable tumors appeared and tumor volume was measured with calipers following the formula, Tumor volume=(length×width)/2. Once the tumor volume reached ˜80-100 mm^3, mice were randomized into sub-groups based on the tumor volume. Animals were administered vehicle, OPC31260 (30 mg/Kg BWt.), OPC31260 (60 mg/Kg BWt) or dDAVP (1 μg/Kg BWt.) and vehicle (saline) by daily intraperitoneal injection, or tolvaptan (120 mg/Kg BWt. in 1% aqueous solution of hydroxypropyl methylcellulose-dose derived from previous study^31) or vehicle by daily oral gavage for 28 days. Body weights and tumor volumes were measured every alternate day. At the end of the study, mice were injected with BRDU (100 mg/Kg BWt. by IP) 90 minutes before sacrifice. Tumors were harvested, photographed and weighed. Tumors were flash frozen or paraffin embedded for further analysis.
# (§2) Tumors from mouse xenografts and cultured 786-O and Caki-1 cells were homogenized in SDS Laemmli buffer and loaded onto 10% SDS-polyacrylamide agarose gel electrophoresis gels, transferred to nitrocellulose membranes and blocked with 5% milk in TBST^32. Membranes were probed with primary antibody followed by wash and horseradish peroxidase secondary antibody application.
# [2] = test system: 786-O cells; test: Clonogenic assay, 786-O cells; assay type: cell-based, human; settings: 48 h treatment, 10 days growth
# Experimental: (§3) 786-O and Caki-1 cells were plated at very low density (1,000 cells/well) in six-well plates. After 16 h, cells were treated with different doses of OPC31260 and incubated for 48 h. Cells were washed and grown for 10 days until visible colonies formed. Colonies were fixed with 4% paraformaldehyde in PBS, stained with 0.25% crystal violet in 25% methanol, washed, air-dried and photographed. Crystal violet was dissolved in sodium citrate buffer (0.1M, 50% ethanol, pH 4.2) and absorbance was recorded at 590 nm.
# [3] = test system: Caki-1 cells; test: Caki-1 xenograft tumor growth in nude mice; assay type: in vivo, Nu/Nu mice; settings: OPC31260 30 and 60 mg/Kg
# Experimental: as §1, with “One week after injection, palpable tumors appeared and tumor volume was measured with calipers following the formula, Tumor volume=(length×width)/2.” left out
# [4] = test system: 786-O cells; test: Western blot of cell lysate, 786-O cells; assay type: cell-based, human; settings: 24 h
# From the text: as §2
# [5] = test system: Caki-1 cells; test: Clonogenic assay, Caki-1 cells; assay type: cell-based, human; settings: 48 h treatment, 10 days growth
# Experimental: as §3
# [6] = test system: Caki-1 cells; test: Western blot of cell lysate, Caki-1 cells; assay type: cell-based, human; settings: 48 h
# From the text: as §2
# [7] = test system: Caki-1 cells; test: TUNEL assay for apoptosis in xenograft tumor sections; assay type: in vivo, Nu/Nu mice; settings: OPC31260 IP, tolvaptan 120 mg/Kg oral, dDAVP 1 μg/Kg IP, daily 28 days
# Experimental: as §1
# TUNEL assays were performed to check apoptosis using the in situ Cell Death Detection Kit (Roche Applied Science, Indianapolis, Ind.). Briefly, slides with 5-μm tumor sections were treated to a TUNEL reaction mixture containing terminal deoxynucleotidyl transferase and nucleotides, including tetramethylrhodamine-labeled dUTP. Both Dapi stained and TUNEL-positive nuclei were counted as described for proliferating cell nuclear antigen. All images were captured using a Nikon 80i microscope (Tokyo, Japan) in the KUMC Imaging Center.
# [8] = test system: 786-O cells; test: MTT cell viability, 786-O cells; assay type: cell-based; settings: Homo sapiens, 786-0, 48 h, read-out: dose at which cell viability declined by 50%
# Experimental: MTT assays were performed to measure cell viability. Briefly, exponentially growing 786-O and Caki-1 cells were seeded in 96 well plates. After 24 h, cells were incubated with different doses of OPC31260 for 48 h. The cells were then incubated in MTT solution (5 mg/mL) for 2 h, following which the MTT solution was removed and the intracellular purple formazan was solubilized in DMSO and quantified by spectrophotometry at […].
# [9] = OPC31260 30/60 mg/kg IP, dDAVP 1 μg/Kg IP, 28 days
smiles,measurement,setting,value
"Cc1ccccc1C(=O)Nc1ccc(C(=O)N2CCCC(N(C)C)c3ccccc32)cc1 (centres unmarked) [OPC31260, 5-(dimethylamino)-1-[4-(2-methylbenzamido)benzoyl]-2,3,4,5-tetrahydro-1H-benzazepine]",CREB levels in tumor lysates,"[1]; OPC31260 30/60 mg/kg IP, 28 days",reduced
same,pCREB levels in tumor lysates,[1]; [9],reduced
same,pERK1/2 levels in tumor lysates,[1]; [9],reduced
same,VEGF protein levels in tumors compared to vehicle,"[1]; OPC31260 IP, dDAVP 1 μg/Kg IP, daily 28 days",significantly reduced
same,dose from which a significant decline in colony formation was observed,[2],5 µM
same,tumor volume,"[3]; daily intraperitoneal injections, 28 days",failed to show a significant increase
same,"tumors at sacrifice versus vehicle (tumor weights, FIG. 2)","[3]; daily intraperitoneal, after 28 days",significantly smaller than in the vehicle treatment group
same,pCREB levels,[4],dose-dependently reduced
same,pERK1/2 levels,[4],dose-dependently reduced
same,dose from which a significant decline in colony formation was observed,[5],10 µM
same,pCREB levels,[6],dose-dependently reduced
same,pERK1/2 levels,[6],dose-dependently reduced
same,TUNEL staining of tumors compared to vehicle,[7],increased
same,IC50,[8],5 to 10 µM
